The values that follow come from patent US20200172911A1, “USP30 INHIBITORS AND METHODS OF USE” (Genentech, Inc., priority 2012, published 2020).

Read-outs that look alike come from different tables or passages of the source. Where a SMILES comes first, the peptide text is derived from it. Bridges are numbered along the chain shown (N, C = ends).

The target in data set [1] is T1, USP30_cd (USP30 catalytic domain with C77A mutation) (Homo sapiens, UniProt Q70CQ3, C77A).
T1 construct: biotinylated USP30_cd (USP30 catalytic domain with C77A mutation); biotin (biotinylated)
T1 sequence (Q70CQ3 68-502 C77A limits assumed): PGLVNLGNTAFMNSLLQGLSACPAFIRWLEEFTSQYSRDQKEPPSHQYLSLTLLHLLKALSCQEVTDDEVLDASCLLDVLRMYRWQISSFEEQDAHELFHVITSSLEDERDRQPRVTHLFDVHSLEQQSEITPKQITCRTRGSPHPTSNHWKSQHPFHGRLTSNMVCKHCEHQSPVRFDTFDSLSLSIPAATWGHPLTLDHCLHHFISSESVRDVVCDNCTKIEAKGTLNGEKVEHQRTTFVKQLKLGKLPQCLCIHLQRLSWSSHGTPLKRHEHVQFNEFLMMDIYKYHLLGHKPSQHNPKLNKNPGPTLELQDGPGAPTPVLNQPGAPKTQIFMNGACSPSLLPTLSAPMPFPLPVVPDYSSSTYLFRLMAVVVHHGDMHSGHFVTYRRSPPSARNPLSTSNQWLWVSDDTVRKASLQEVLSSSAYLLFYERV
Description: spot phage ELISA against biotinylated USP30_cd. The note with it: USP30_cd on NeutrAvidin plate versus NeutrAvidin plate alone. Format: binding. The source says: The selection identified peptide USP30_3 and USP30_8, which had moderate spot ELISA signals (signal/noise ratios of ˜5). USP_30 and USP_8 have the sequences:
Peptide USP30_3 was selected for affinity maturation. To improve the affinity, a soft randomized library was constructed using the USP30_3 sequence as the targeted parent, and panned against USP30_cd in solution as described previously (Stanger, et al., 2012, Nat. Chem. Bio., 7: 655-660). After four rounds of solution panning, 20 peptides were identified that bound to USP30 catalytic domain with stronger spot phage ELISA signal than the parent USP30_3, manifested by an improvement in the signal/noise ratio of about 3-6 fold.
The sequences for certain affinity matured peptides are shown below the graph, along with the signal to noise ratio (“S/N”), which is the ratio of the spot phage ELISA signal (“signal”) detected against biotinylated USP30 cd captured on NeutrAvidin-coated 384 well Maxisorb plates versus the ELISA signal against the NeutrAvidin-coated plate alone. […] All of the affinity matured peptides shown had signal to noise ratios of greater than 10 except for USP30_3.27 and USP30_3.62.

The subject of data set [2] is Drosophila. Description: climbing assay with paraquat. The following applies: control flies, paraquat 10 mM 48 hours, L-DOPA 1 mM 48 hours. The class given is in vivo. Here is the method:
Climbing assays were performed using the following Drosophila lines: y, w; Actin5C-GAL4/CyO, y+ (Actin only); y, w; UAS-CG3016-RNAi/CyO, y+ (RNAi only); y, w; UAS-CG3016^RNAi, Actin5C-GAL4/CyO, y+ (USP30 knockdown).
1-day old adult males were fed a solution containing 5% sucrose only (in water) or 5% sucrose+10 mM paraquat (in water) on saturated Whatman paper. After 48 hours of treatment, flies were anesthetized using carbon dioxide and transferred in groups of ten to vials containing only 1% agarose for a 1-hour recovery period from the effects of carbon dioxide. The flies were then transferred into a new glass tube, gently tapped to the bottom and scored for their ability to climb. The number of flies climbing vertically >15 cm in 30 seconds was recorded.
To examine the effect of suppressing USP30 in neurons that are relevant to PD, we used dopamine decarboxylase (Ddc)-GAL439 to drive dUSP30^RNAi specifically in aminergic neurons of the fly nervous system. As a model of mitochondrial damage and PD, we treated flies with paraquat, a mitochondrial toxin linked to PD (Castello et al., J. Biol. Chem., 282: 14186-14193 (2007); Cocheme et al., J. Biol. Chem., 283: 1786-1798 (2008); Tanner et al., Environmental Health Perspect., 119: 866-872 (2011)). […]

Data set [3] deals with Drosophila. The class given is in vivo. The following applies: Actin-GAL4 and UAS-dUSP30^RNAi control groups, paraquat 10 mM, 96 hours. Here is the method: Ten adult 1-day old males per vial were fed a solution containing 5% sucrose only (in water) or 5% sucrose+10 mM paraquat (in water) on saturated Whatman paper. The number of live flies was counted at described intervals.
To test whether USP30 knockdown has an effect on organism survival, we monitored the percentage of live flies over prolonged treatment with paraquat (10 mM, 96 hours). […] Only <15% of flies treated with paraquat were alive in Actin-GAL4 and UAS-dUSP30^RNAi control groups at 96 hours whereas ˜45% of flies were alive in the Actin-GAL4>UAS-dUSP30^RNAi (‘whole body dUSP30 knockdown’) group (FIG. 12G). We confirmed that the benefit of USP30 knockdown was not due to differences in exposure to paraquat since all three fly lines ingested roughly equal amounts of paraquat as measured by LC-MS/MS (average mass of paraquat per fly: UAS-dUSP30^RNAi: 3.2 μg, Actin-GAL4: 2.7 μg, Actin-GAL4>UAS-dUSP30R^RNAi: 2.7 μg). […] Remarkably, USP30 knockdown specifically in Ddc neurons was sufficient to provide significant survival benefit, albeit less than the whole body USP30 knockdown (FIG. 12H).

In data set [4] the test system is Drosophila. Description: dopamine levels in fly heads by ELISA. The note with it: control fly lines, paraquat 10 mM, 48 hours. The class given is in vivo. The source says: To examine the effect of suppressing USP30 in neurons that are relevant to PD, we used dopamine decarboxylase (Ddc)-GAL439 to drive dUSP30^RNAi specifically in aminergic neurons of the fly nervous system. As a model of mitochondrial damage and PD, we treated flies with paraquat, a mitochondrial toxin linked to PD (Castello et al., J. Biol. Chem., 282: 14186-14193 (2007); Cocheme et al., J. Biol. Chem., 283: 1786-1798 (2008); Tanner et al., Environmental Health Perspect., 119: 866-872 (2011)). […] This climbing defect was fully rescued by additional treatment with L-DOPA (FIG. 17D), showing that this behavioral deficit is likely due to depletion of dopamine. Consistently, in control fly lines (Ddc-GAL4 or UAS-dUSP30^RNAi transgenics alone), paraquat treatment (10 mM, 48 hours) caused a 30-60% reduction in dopamine levels in fly heads without altering serotonin neurotransmitter levels (indicating specific toxicity of paraquat on the dopaminergic system in this model—FIG. 12F and FIG. 17E).
(In general: An ELISA detects its analyte on a solid surface through an enzyme-linked reagent.)

Data set [5] is classed as in vivo, Drosophila. The following applies: 10 mM, 48 hours. Here is the method:
1-day old adult males were fed a solution containing 5% sucrose only (in water) or 5% sucrose+10 mM paraquat (in water) on saturated Whatman paper. After 48 hours of treatment, 15 flies were collected per condition and homogenized in 100 μL water. Standard curve samples were generated by spiking appropriate amounts of paraquat to homogenates from untreated flies. Then the samples were vortex mixed, 200 μL of acetonitrile containing internal standard (Propranolol) was added. The samples were vortexed again and centrifuged at 10,000×g for 10 min. Supernatants were transferred to a new plate that contained 200 μL of water and analyzed by LC-MS/MS to quantify for concentrations of paraquat. The LC-MS/MS consisted of an Agilent 1100 series HPLC system (Santa Clara, Calif.) and an HTS PAL autosampler from CTC Analytics (Carrboro, N.C.) coupled with a 4000 Q TRAP® MS and TurbolonSpray® ion source from Applied Biosystems (Foster City, Calif.). HPLC separation was performed on a Waters Atlantis dC18 column (3 μm 100×2.1 mm) with a Krud Katcher guard column from Phenomenex. Quantitation was carried out using the multiple reaction monitoring (MRM) with transition 185.1→165.1 for paraquat and 260.2→183.1 for propranolol. The lower and upper limit of the assay is 10 μM and 1000 μM, respectively. The quatitation of the assay employed a calibration curve which was constructed through plotting the analyte/IS peak area ration versus the nominal concentration of paraquat with a weighed 1/x^2 linear regression.
To test whether USP30 knockdown has an effect on organism survival, we monitored the percentage of live flies over prolonged treatment with paraquat (10 mM, 96 hours). […] We confirmed that the benefit of USP30 knockdown was not due to differences in exposure to paraquat since all three fly lines ingested roughly equal amounts of paraquat as measured by LC-MS/MS (average mass of paraquat per fly: UAS-dUSP30^RNAi: 3.2 μg, Actin-GAL4: 2.7 μg, Actin-GAL4>UAS-dUSP30R^RNAi: 2.7 μg). […]

In another data set the test system is USP30. The experiment in a line: immunoblot of endogenous USP30 in neuronal cultures. Format: cell-based, rat. The text has this: Adeno-associated virus type2 (AAV2) particles expressing Parkin, PINK1 and USP30 shRNAs were produced by Vector Biolabs, Inc. from pAAV-BASIC-CAGeGFP-WPRE vector containing the HI promoter and shRNA expression cassette of the pSuper vectors.
To test the function of endogenous USP30, USP30 was knocked down using shRNAs. In heterologous cells, rat USP30 shRNA plasmid specifically eliminated the expression of transfected rat USP30 cDNA (FIG. 5B). The same rat USP30 shRNA led to a ˜85% reduction in endogenous USP30 in neuronal cultures (FIG. 5C). In neurons, USP30 knockdown increased the lysosomal delivery of mt-Keima (˜60% increase in mitophagy index), relative to negative control luciferase shRNA (FIG. 5D, F).

Data set [6] concerns cultured hippocampal neurons. Description: mt-Keima mitophagy index imaging in hippocampal neurons. Format: cell-based, rat. The note with it: relative to luciferase shRNA. The protocol:
Dissociated hippocampal neuron cultures were prepared as described (Seeburg et al., Neuron 58: 571-583 (2008)) and transfected using Lipofectamine LTX PLUS at DIV 8-10. Constructs were expressed for 1-3 days for overexpression experiments and 3-4 days for knockdown experiments. mt-Keima-transfected neurons were imaged with a Leica TCS SP5 Laser Scanning Confocal microscope with a 40×/1.25 oil objective (0.07 μm/pixel resolution, […] confocal z-step size). Cells were kept in a humidified chamber maintained at 37° C./5% CO2 during imaging. Two images were acquired using a hybrid detector in sequential mode with 458 nm (neutral pH signal) and 543 nm (acidic pH signal) laser excitation, and emission fluorescence collected between 630-710 nm. All image quantification was performed by custom-written macros in ImageJ. For mt-Keima quantification, cell bodies were manually outlined and total area of high ratio (543 nm/458 nm) lysosomal signal was divided by the total area of somatic mitochondrial signal (mitophagy index).
To measure mitophagy in neurons, mt-Keima, a ratiometric pH-sensitive fluorescent protein that is targeted into the mitochondrial matrix, was monitored. A low ratio mt-Keima-derived fluorescence (543 nm/458 nm) reports neutral environment whereas a high ratio fluorescence reports acidic pH (Katayama et al., Chemistry & Biology 18: 1042-1094 (2011)). […]

The next data set concerns hippocampal neurons. The experiment in a line: mito-roGFP relative oxidation index imaging. The following applies: 0 = after DTT, 1 = after aldrithiol; luciferase shRNA control ~0.6. Format: cell-based, rat. The text has this: Whether USP30 knockdown provides functional benefit to mitochondria and cells was examined next. ROS—which largely derive from mitochondria—is associated with neurodegenerative disorders and mitochondria dysfunction may contribute to increased oxidative stress in PD (Lee et al., Biochem. J, 441: 523-540 (2012)). To measure oxidative stress in mitochondria, mitochondria matrix-targeted ro-GFP (mito-roGFP), a redox-sensitive fluorescent protein that allows quantitative ratiometric imaging of mitochondrial redox potential was used (Dooley et al., J. Biol. Chem. 279: 22284-22293 (2004)).

With `CC(C)C[C@H](NC(=O)[C@@H]1CCCN1)C(=O)N[C@@H](Cc1ccc(O)cc1)C(=O)N[C@H]1CSSC[C@@H](C(=O)N[C@@H](Cc2ccccc2)C(=O)N[C@@H](Cc2ccc(O)cc2)C(=O)O)NC(=O)[C@H](CC(C)C)NC(=O)[C@H](Cc2ccc(O)cc2)NC(=O)CNC(=O)[C@H](Cc2ccc(O)cc2)NC(=O)[C@H]([C@@H](C)O)NC(=O)[C@H](CC(C)C)NC(=O)[C@H](CC(=O)O)NC(=O)[C@H](Cc2ccc(O)cc2)NC(=O)[C@H](Cc2ccccc2)NC1=O` [USP30_3, PLYCFYDLTYGYLCFY] (H-PLYCFYDLTYGYLCFY-OH; disulfide 4-14; N-terminus and C-terminus assumed), in data set [1], the “spot ELISA signal/noise ratio” value is on record as approximately 5.
In the case of `N[C@@H](Cc1ccc(O)c(O)c1)C(=O)O` [L-DOPA], the “rescue of paraquat-induced climbing defect” value with Drosophila [2] is given as “fully rescued”.
Take `C[n+]1ccc(-c2cc[n+](C)cc2)cc1` [paraquat, paraquat dichloride]: in the data set on Drosophila [3], the flies alive is reported as less than 15%. Further, the “reduction in dopamine levels in fly heads” value with Drosophila [4] is listed as 30-60%. In addition, the “average mass of paraquat per fly” value in data set [5] (Actin-GAL4>UAS-dUSP30^RNAi flies) is 2.7 µg; in data set [5] (Actin-GAL4 flies), 2.7 µg; in data set [5] (UAS-dUSP30^RNAi flies), 3.2 µg.
“CCAGAGCCCTGTTCGGTTT ((CCAGAGCCCTGTTCGGTTT; as printed in the source, key not given here) [rat USP30 shRNA]”: the “reduction in endogenous USP30” value with USP30 was approximately 85%. For the same molecule, the “increase in mitophagy index” value in data set [6] is given as approximately 60%. The relative oxidation index with hippocampal neurons was approximately 0.4.
